Assay results: the NIST ThermoML archive (doi:10.1016/j.jct.2005.11.012)
Numbers after ± are expanded uncertainties.

What was measured:
[1] = refractive index (Na D-line) (dimensionless); xn = mol fraction of the nth substance listed; settings: 101 kPa, Liquid
[2] = xn = mol fraction of the nth substance listed; settings: 101 kPa, Liquid
[3] = refractive index (Na D-line) (dimensionless); settings: 101.33 kPa, Liquid
[4] = 101 kPa, Liquid

Structure (SMILES): BrC(Br)C(Br)Br [1,1,2,2-tetrabromoethane] + CCCCCCO
- refractive index ([1]; 293.15 K, x1 = 0.1001): 1.43743 ± 0.00065
- refractive index ([1]; 293.15 K, x1 = 0.2007): 1.45713 ± 0.00065
- refractive index ([1]; 293.15 K, x1 = 0.3004): 1.4771 ± 0.00065
- refractive index ([1]; 293.15 K, x1 = 0.4004): 1.49787 ± 0.00066
- refractive index ([1]; 293.15 K, x1 = 0.5005): 1.51914 ± 0.00066
- refractive index ([1]; 293.15 K, x1 = 0.6008): 1.54101 ± 0.00066
- refractive index ([1]; 293.15 K, x1 = 0.6999): 1.56327 ± 0.00065
- refractive index ([1]; 293.15 K, x1 = 0.8012): 1.58693 ± 0.00065
- refractive index ([1]; 293.15 K, x1 = 0.9001): 1.61052 ± 0.00065
- refractive index ([1]; 293.15 K, x1 = 1): 1.63535 ± 0.00065
- refractive index ([1]; 303.15 K, x1 = 0.1001): 1.43304 ± 0.00065
- refractive index ([1]; 303.15 K, x1 = 0.2007): 1.45244 ± 0.00065
- refractive index ([1]; 303.15 K, x1 = 0.3004): 1.47214 ± 0.00065
- refractive index ([1]; 303.15 K, x1 = 0.4004): 1.49244 ± 0.00066
- refractive index ([1]; 303.15 K, x1 = 0.5005): 1.51355 ± 0.00066
- refractive index ([1]; 303.15 K, x1 = 0.6008): 1.53523 ± 0.00066
- refractive index ([1]; 303.15 K, x1 = 0.6999): 1.55749 ± 0.00065
- refractive index ([1]; 303.15 K, x1 = 0.8012): 1.58095 ± 0.00065
- refractive index ([1]; 303.15 K, x1 = 0.9001): 1.60452 ± 0.00065
- refractive index ([1]; 303.15 K, x1 = 1): 1.62926 ± 0.00065
- mass density ([2]; 293.15 K, x1 = 0.1001): 1021.6 ± 0.58 kg/m3
- mass density ([2]; 293.15 K, x1 = 0.2007): 1227.75 ± 0.89 kg/m3
- mass density ([2]; 293.15 K, x1 = 0.3004): 1434.26 ± 1.2 kg/m3
- mass density ([2]; 293.15 K, x1 = 0.4004): 1643.89 ± 1.6 kg/m3
- mass density ([2]; 293.15 K, x1 = 0.5005): 1856.54 ± 2 kg/m3
- mass density ([2]; 293.15 K, x1 = 0.6008): 2072.22 ± 2.3 kg/m3
- mass density ([2]; 293.15 K, x1 = 0.6999): 2288.24 ± 2.5 kg/m3
- mass density ([2]; 293.15 K, x1 = 0.8012): 2512.37 ± 2.8 kg/m3
- mass density ([2]; 293.15 K, x1 = 0.9001): 2734.51 ± 3.2 kg/m3
- mass density ([2]; 293.15 K, x1 = 1): 2963.2 ± 3.5 kg/m3
- mass density ([2]; 303.15 K, x1 = 0.1001): 1012.63 ± 0.57 kg/m3
- mass density ([2]; 303.15 K, x1 = 0.2007): 1216.94 ± 0.87 kg/m3
- mass density ([2]; 303.15 K, x1 = 0.3004): 1421.62 ± 1.2 kg/m3
- mass density ([2]; 303.15 K, x1 = 0.4004): 1629.48 ± 1.6 kg/m3
- mass density ([2]; 303.15 K, x1 = 0.5005): 1840.42 ± 2 kg/m3
- mass density ([2]; 303.15 K, x1 = 0.6008): 2054.51 ± 2.2 kg/m3
- mass density ([2]; 303.15 K, x1 = 0.6999): 2269.06 ± 2.5 kg/m3
- mass density ([2]; 303.15 K, x1 = 0.8012): 2491.76 ± 2.8 kg/m3
- mass density ([2]; 303.15 K, x1 = 0.9001): 2712.53 ± 3.1 kg/m3
- mass density ([2]; 303.15 K, x1 = 1): 2939.86 ± 3.5 kg/m3

Structure (SMILES): BrC(Br)C(Br)Br [1,1,2,2-tetrabromoethane] + CCCCCO
- refractive index ([1]; 293.15 K, x1 = 0.1009): 1.43257 ± 0.00065
- refractive index ([1]; 293.15 K, x1 = 0.2014): 1.45508 ± 0.00065
- refractive index ([1]; 293.15 K, x1 = 0.3004): 1.47732 ± 0.00065
- refractive index ([1]; 293.15 K, x1 = 0.4003): 1.49977 ± 0.00066
- refractive index ([1]; 293.15 K, x1 = 0.5014): 1.52252 ± 0.00066
- refractive index ([1]; 293.15 K, x1 = 0.6001): 1.54476 ± 0.00066
- refractive index ([1]; 293.15 K, x1 = 0.7001): 1.56734 ± 0.00065
- refractive index ([1]; 293.15 K, x1 = 0.7998): 1.58989 ± 0.00065
- refractive index ([1]; 293.15 K, x1 = 0.8997): 1.61255 ± 0.00065
- refractive index ([1]; 293.15 K, x1 = 1): 1.63535 ± 0.00065
- refractive index ([1]; 303.15 K, x1 = 0.1009): 1.42823 ± 0.00065
- refractive index ([1]; 303.15 K, x1 = 0.2014): 1.45052 ± 0.00065
- refractive index ([1]; 303.15 K, x1 = 0.3004): 1.47247 ± 0.00065
- refractive index ([1]; 303.15 K, x1 = 0.4003): 1.49475 ± 0.00066
- refractive index ([1]; 303.15 K, x1 = 0.5014): 1.51723 ± 0.00066
- refractive index ([1]; 303.15 K, x1 = 0.6001): 1.53938 ± 0.00066
- refractive index ([1]; 303.15 K, x1 = 0.7001): 1.5616 ± 0.00065
- refractive index ([1]; 303.15 K, x1 = 0.7998): 1.58403 ± 0.00065
- refractive index ([1]; 303.15 K, x1 = 0.8997): 1.60652 ± 0.00065
- refractive index ([1]; 303.15 K, x1 = 1): 1.62926 ± 0.00065
- mass density ([2]; 293.15 K, x1 = 0.1009): 1048.36 ± 0.61 kg/m3
- mass density ([2]; 293.15 K, x1 = 0.2014): 1276.63 ± 0.97 kg/m3
- mass density ([2]; 293.15 K, x1 = 0.3004): 1497.47 ± 1.4 kg/m3
- mass density ([2]; 293.15 K, x1 = 0.4003): 1716.5 ± 1.8 kg/m3
- mass density ([2]; 293.15 K, x1 = 0.5014): 1934.64 ± 2.1 kg/m3
- mass density ([2]; 293.15 K, x1 = 0.6001): 2144.16 ± 2.4 kg/m3
- mass density ([2]; 293.15 K, x1 = 0.7001): 2353.22 ± 2.6 kg/m3
- mass density ([2]; 293.15 K, x1 = 0.7998): 2558.61 ± 2.9 kg/m3
- mass density ([2]; 293.15 K, x1 = 0.8997): 2761.73 ± 3.2 kg/m3
- mass density ([2]; 293.15 K, x1 = 1): 2963.2 ± 3.5 kg/m3
- mass density ([2]; 303.15 K, x1 = 0.1009): 1038.85 ± 0.6 kg/m3
- mass density ([2]; 303.15 K, x1 = 0.2014): 1265.1 ± 0.95 kg/m3
- mass density ([2]; 303.15 K, x1 = 0.3004): 1484.08 ± 1.3 kg/m3
- mass density ([2]; 303.15 K, x1 = 0.4003): 1701.36 ± 1.7 kg/m3
- mass density ([2]; 303.15 K, x1 = 0.5014): 1917.88 ± 2.1 kg/m3
- mass density ([2]; 303.15 K, x1 = 0.6001): 2125.93 ± 2.3 kg/m3
- mass density ([2]; 303.15 K, x1 = 0.7001): 2333.58 ± 2.6 kg/m3
- mass density ([2]; 303.15 K, x1 = 0.7998): 2537.64 ± 2.9 kg/m3
- mass density ([2]; 303.15 K, x1 = 0.8997): 2739.49 ± 3.2 kg/m3
- mass density ([2]; 303.15 K, x1 = 1): 2939.86 ± 3.5 kg/m3

Structure (SMILES): CCCCCCCCCCO [decan-1-ol]
- refractive index ([3]; 293.15 K): 1.43706 ± 0.00065
- refractive index ([3]; 303.15 K): 1.43302 ± 0.00065
- mass density ([4]; 293.15 K): 829.7 ± 0.57 kg/m3
- mass density ([4]; 303.15 K): 822.85 ± 0.58 kg/m3

Structure (SMILES): CCCCCCCCCCO [decan-1-ol] + BrC(Br)C(Br)Br
- refractive index ([1]; 293.15 K, x2 = 0): 1.43706 ± 0.00065
- refractive index ([1]; 303.15 K, x2 = 0): 1.43302 ± 0.00065
- mass density ([2]; 293.15 K, x2 = 0): 829.7 ± 0.57 kg/m3
- mass density ([2]; 303.15 K, x2 = 0): 822.85 ± 0.58 kg/m3

Structure (SMILES): CCCCCCCO [heptan-1-ol]
- refractive index ([3]; 293.15 K): 1.42397 ± 0.00065
- refractive index ([3]; 303.15 K): 1.42002 ± 0.00065
- mass density ([4]; 293.15 K): 822.39 ± 0.58 kg/m3
- mass density ([4]; 303.15 K): 815.41 ± 0.58 kg/m3

Structure (SMILES): CCCCCCCO [heptan-1-ol] + BrC(Br)C(Br)Br
- refractive index ([1]; 293.15 K, x2 = 0): 1.42397 ± 0.00065
- refractive index ([1]; 303.15 K, x2 = 0): 1.42002 ± 0.00065
- mass density ([2]; 293.15 K, x2 = 0): 822.39 ± 0.58 kg/m3
- mass density ([2]; 303.15 K, x2 = 0): 815.41 ± 0.58 kg/m3

Structure (SMILES): CCCCCCO [hexan-1-ol]
- refractive index ([3]; 293.15 K): 1.41826 ± 0.00065
- refractive index ([3]; 303.15 K): 1.41423 ± 0.00065
- mass density ([4]; 293.15 K): 818.92 ± 0.58 kg/m3
- mass density ([4]; 303.15 K): 811.73 ± 0.59 kg/m3

Structure (SMILES): CCCCCCO [hexan-1-ol] + BrC(Br)C(Br)Br
- refractive index ([1]; 293.15 K, x2 = 0): 1.41826 ± 0.00065
- refractive index ([1]; 303.15 K, x2 = 0): 1.41423 ± 0.00065
- mass density ([2]; 293.15 K, x2 = 0): 818.92 ± 0.58 kg/m3
- mass density ([2]; 303.15 K, x2 = 0): 811.73 ± 0.59 kg/m3

Structure (SMILES): CCCCCCCCO [octan-1-ol]
- refractive index ([3]; 293.15 K): 1.42958 ± 0.00065
- refractive index ([3]; 303.15 K): 1.42562 ± 0.00065
- mass density ([4]; 293.15 K): 824.99 ± 0.58 kg/m3
- mass density ([4]; 303.15 K): 818.09 ± 0.58 kg/m3

Structure (SMILES): CCCCCCCCO [octan-1-ol] + BrC(Br)C(Br)Br
- refractive index ([1]; 293.15 K, x2 = 0): 1.42958 ± 0.00065
- refractive index ([1]; 303.15 K, x2 = 0): 1.42562 ± 0.00065
- mass density ([2]; 293.15 K, x2 = 0): 824.99 ± 0.58 kg/m3
- mass density ([2]; 303.15 K, x2 = 0): 818.09 ± 0.58 kg/m3

Structure (SMILES): CCCCCO [pentan-1-ol]
- refractive index ([3]; 293.15 K): 1.40995 ± 0.00065
- refractive index ([3]; 303.15 K): 1.40592 ± 0.00065
- mass density ([4]; 293.15 K): 815.03 ± 0.58 kg/m3
- mass density ([4]; 303.15 K): 807.6 ± 0.59 kg/m3

Structure (SMILES): CCCCCO [pentan-1-ol] + BrC(Br)C(Br)Br
- refractive index ([1]; 293.15 K, x2 = 0): 1.40995 ± 0.00065
- refractive index ([1]; 303.15 K, x2 = 0): 1.40592 ± 0.00065
- mass density ([2]; 293.15 K, x2 = 0): 815.03 ± 0.58 kg/m3
- mass density ([2]; 303.15 K, x2 = 0): 807.6 ± 0.59 kg/m3
